Experimental data: the supplement of paper PMC11061612

Key:
Assay in all cases: Bliss excess, mean over the matrix (fraction); higher = more synergy
[1] = system: JHH-7 (Hepatocellular Carcinoma)
In short: (§1)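 Bliss excess equals the observed combination effect minus the expected value EA + EB − EA·EB, where EA and EB are the effects of each agent alone. Combination Emax is the second-highest inhibition within the matrix. Inhibition was scaled from CellTiter-Glo 2.0 luminescence, with 0 set by vehicle wells and 1 by blank wells, after 72 hours of two-drug dosing of cells plated in 1536-well plates.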

[2] = system: PFSK-1 (Other Solid Carcinomas)
In short: as §1

[3] = system: SNU-C1 (Colorectal Carcinoma)
In short: as §1

[4] = system: OVISE (Ovarian Carcinoma)
In short: as §1

A704 (Kidney Carcinoma) = system: A704 (Kidney Carcinoma)
In short: as §1

[5] = system: SCC-3 (B-Cell Non-Hodgkin's Lymphoma)
In short: as §1

[6] = system: SCC-9 (Oral Cavity Carcinoma)
In short: as §1

[7] = system: LC4-1 (B-Lymphoblastic Leukemia)
In short: as §1

[8] = system: KYSE-50 (Esophageal Squamous Cell Carcinoma)
In short: as §1

[9] = system: KINGS-1 (Low Grade Glioma)
In short: as §1

NB7 (Neuroblastoma) = system: NB7 (Neuroblastoma)
In short: as §1

[10] = system: NCI-N87 (Gastric Carcinoma)
In short: as §1

[11] = system: NCI-H513 (Other Solid Carcinomas)
In short: as §1

[12] = system: KLE (Endometrial Carcinoma)
In short: as §1

[13] = system: NCI-H322M (Lung Adenocarcinoma)
In short: as §1

EW-18 (Ewing's Sarcoma) = system: EW-18 (Ewing's Sarcoma)
In short: as §1

[14] = system: OCUB-M (Breast Carcinoma)
In short: as §1

[15] = system: NCI-H1573 (Lung Adenocarcinoma)
In short: as §1

EW-13 (Ewing's Sarcoma) = system: EW-13 (Ewing's Sarcoma)
In short: as §1

[16] = system: NCI-H2405 (Lung Adenocarcinoma)
In short: as §1

| SMILES | Bliss excess [1] | Bliss excess [2] | Bliss excess [3] | Bliss excess [4] | Bliss excess (A704 (Kidney Carcinoma)) | Bliss excess [5] | Bliss excess [6] | Bliss excess [7] | Bliss excess [8] | Bliss excess [9] | Bliss excess (NB7 (Neuroblastoma)) | Bliss excess [10] | Bliss excess [11] | Bliss excess [12] | Bliss excess [13] | Bliss excess (EW-18 (Ewing's Sarcoma)) | Bliss excess [14] | Bliss excess [15] | Bliss excess (EW-13 (Ewing's Sarcoma)) | Bliss excess [16] |
| --- | --- | --- | --- | --- | --- | --- | --- | --- | --- | --- | --- | --- | --- | --- | --- | --- | --- | --- | --- | --- |
| COc1cc2ncnc(Nc3ccc(F)c(Cl)c3)c2cc1OCCCN1CCOCC1 [Gefitinib] + CC(C)n1c(=O)n(C)c2cnc3cc(F)c(-c4ccc(OCCCN5CCCCC5)nc4)cc3c21 [AZD1390] (first compound max 10 µM, 7x7, partner max 0.3 µM) | -0.0451 | -0.0688 | -0.0507 | -0.0739 | -0.0325 | -0.0418 | -0.0309 | -0.0408 | -0.0546 | -0.0594 | -0.0402 | -0.064 | -0.0828 | -0.0548 | -0.0312 | -0.0343 | -0.0537 | -0.104 | -0.0568 | -0.0597 |
| CS(=O)(=O)CCNCc1ccc(-c2ccc3ncnc(Nc4ccc(OCc5cccc(F)c5)c(Cl)c4)c3c2)o1 [Lapatinib] + C[C@@H](Oc1cc(-c2cnn(C3CCNCC3)c2)cnc1N)c1c(Cl)ccc(F)c1Cl [Crizotinib] (first compound max 10 µM, 7x7, partner max 10 µM) | -0.0055 | -0.0546 | -0.0359 | 0 | -0.122 | 0.0226 | 0.0015 | -0.0501 | -0.0352 | 0.0032 | -0.0172 | -0.0456 | -0.0342 | -0.0215 | 0.0188 | -0.0533 | -0.0465 | 0.121 | 0.0066 | -0.0396 |
| CC(=O)c1c(C)c2cnc(Nc3ccc(N4CCNCC4)cn3)nc2n(C2CCCC2)c1=O [Palbociclib] + CC1(C)CCC(CN2CCN(c3ccc(C(=O)NS(=O)(=O)c4ccc(NCC5CCOCC5)c([N+](=O)[O-])c4)c(Oc4cnc5[nH]ccc5c4)c3)CC2)=C(c2ccc(Cl)cc2)C1 [Venetoclax] (first compound max 10 µM, 7x7, partner max 1 µM) | -0.0474 | -0.0425 | -0.093 | -0.0422 | -0.0575 | 0.0411 | -0.051 | -0.0396 | 0.0238 | 0.0075 | -0.102 | -0.0275 | -0.0574 | -0.0355 | -0.0288 | 0.0221 | -0.0276 | 0.0244 | -0.0311 | -0.0521 |
| CC(=O)c1c(C)c2cnc(Nc3ccc(N4CCNCC4)cn3)nc2n(C2CCCC2)c1=O [Palbociclib] + Cc1c2c(nn1C)CSCc1cc(n(C)n1)CSc1cc(c3ccccc3c1)OCCCc1c(C(=O)O)n(C)c3c-2c(Cl)ccc13 [AZD5991] (first compound max 10 µM, 7x7, partner max 1 µM) | -0.0346 | -0.0471 | -0.0562 | -0.0286 | -0.0629 | 0.0284 | -0.0368 | -0.0081 | -0.0658 | 0.0346 | 0.054 | -0.0373 | -0.0484 | -0.082 | -0.0174 | -0.0135 | -0.0004 | -0.0539 | -0.0346 | -0.0149 |
| CC(=O)c1c(C)c2cnc(Nc3ccc(N4CCNCC4)cn3)nc2n(C2CCCC2)c1=O [Palbociclib] + Cn1cnc2c(F)c(Nc3ccc(Br)cc3Cl)c(C(=O)NOCCO)cc21 [Selumetinib] (first compound max 10 µM, 7x7, partner max 10 µM) | -0.0039 | -0.0505 | 0.0288 | -0.0174 | -0.0874 | 0.0581 | 0.0811 | 0.0312 | 0.0789 | -0.0272 | 0.0136 | 0.0117 | -0.035 | 0.0167 | 0.0515 | -0.0542 | -0.0413 | 0.0017 | -0.0287 | -0.016 |
| COc1cccc(OCCCN)c1-c1cc(Nc2cnc(C#N)cn2)n[nH]1 [Prexasertib] + CCc1c2c(nc3ccc(O)cc13)-c1cc3c(c(=O)n1C2)COC(=O)[C@]3(O)CC [SN-38] (first compound max 1 µM, 7x7, partner max 0.3 µM) | 0.116 | -0.0513 | -0.0179 | -0.136 | -0.0496 | 0.0056 | 0.0405 | -0.0868 | 0.0461 | 0.0121 | 0.0222 | -0.0787 | -0.0068 | 0.0285 | -0.0161 | -0.0728 | 0.258 | 0.0357 | -0.0697 | -0.058 |
| C[C@@H](c1ccc2nccn2c1)n1nnc2ncc(-c3cnn(C)c3)nc21 [Savolitinib] + CC1(C)CCC(CN2CCN(c3ccc(C(=O)NS(=O)(=O)c4ccc(NCC5CCOCC5)c([N+](=O)[O-])c4)c(Oc4cnc5[nH]ccc5c4)c3)CC2)=C(c2ccc(Cl)cc2)C1 [Venetoclax] (first compound max 1 µM, 7x7, partner max 1 µM) | -0.0342 | -0.0025 | -0.0363 | -0.0481 | -0.0516 | -0.0166 | -0.0328 | -0.0091 | -0.0636 | -0.0566 | -0.0221 | -0.0341 | -0.0719 | -0.111 | -0.0536 | -0.067 | -0.0371 | -0.0802 | -0.0796 | -0.0793 |
